Assay results: patent US20190153024A1, “NOVEL SALTS AND POLYMORPHS OF SCY-078” (priority 2015, published 2019)

Tests used:
[1] = Dynamic Vapor Sorption (DVS) water uptake; type: physicochemical; settings: for solid form by XRPD after DVS: after DVS experiment
Procedure: Dynamic Vapor Sorption (DVS)—The term “DVS” means the procedure described in below. The relative humidity at 25° C. was calibrated against deliquescence point of LiCl, Mg(NO3)2 and KCl.
The DVS of SCY-078 salts were tested according to the above method, using a 10-20 mg sample size. The DVS was measured using a Surface Measurement Systems (SMS) DVS Intrinsic.

[2] = pH value of saturated SCY-078 salt solutions in water; type: physicochemical; settings: saturated salt solution in H2O, room temperature; for pH 1 hr: equilibrated 1 hour; for pH 24 hrs: equilibrated 24 hours
Procedure: To test the pH, a solution of each compound was equilibrated at room temperature using a rolling incubator (25 rpm) for 1 hour and 24 hours before measurement.

[3] = Chemical and physical stability of SCY-078 salts on storage (25° C./60% RH, 40° C./75% RH, 60° C.); type: physicochemical; settings: Type M 4 days, Type S 1 week
Source text: For all compounds tested other than the trifluoroacetate salts (Type A and B) and the HCl Type I and II salts, the conditions and parameters used for measuring solubility are shown in Table 2A and for measuring stability are showing in Table 3A. The conditions and parameters used for the solubility of the trifluoroacetate salts (Type A and B) and the HCl Type I and II salts are shown in Table 2B and for stability are shown in Table 3B.

[4] = Physical and chemical stability of trifluoroacetate Types A and B and HCl Type I for 1, 2, 4 and 8 weeks; type: physicochemical
Procedure: High Power Liquid Chromatography (HPLC) Method—An Agilent 1260 HPLC with DAD detector was utilized to test solubility or to test purity and stability. […] System suitability was tested by injecting standard solutions five times in each sample sequence, and the relative standard deviation of the peak areas was less than 2%.
Physical and chemical stability evaluation of trifluoroacetate Type A, trifluoroacetate Type B, and HCl Type I was performed at 25° C./60% RH, 40° C./75% RH and 60° C. for 1, 2, 4 and 8 weeks. In the experiments, approximately 20 mg of solid was placed into a 1.5-mL glass vial. The vials were stored under 25° C./60% RH (uncapped), 40° C./75% RH (uncapped) and 60° C. (capped) conditions for 8 weeks. XRPD analysis was then employed to check the crystalline form of the solid, and HPLC was utilized to determine the purity profile at 1, 2, 4 and 8 weeks. […] The solid form change of trifluoroacetate Type A at 2 and 4 weeks was postulated to the air-exposure when the sample was taken out for XRPD characterization.

[5] = Kinetic solubility of trifluoroacetate Types A and B and HCl Type I (alternative procedure: SGF, FaSSIF and FeSSIF alternative media, acetate pH 5.5, phosphate pH 6.0 alternative media); settings: for Form change: residual solid by XRPD
Procedure: An alternative media (“FaSSIF alternative media”) was used to study the trifluoroacetate salts (Type A and B) and the HCl Type I salt. More specifically, the media was prepared by weighing 0.17 g of sodium phosphate monobasic (NaH2PO4, anhydrous), 0.021 g of sodium hydroxide, and 0.31 g of sodium chloride into a 50-mL volumetric flask and was dissolve with approximately 48 mL of purified water. The pH was adjusted to exactly 6.5 using 1 M HCl or 1 M NaOH and diluted to volume with purified water. 0.11 g of SIF powder was then added, stirred and sonicated until all the powder was completely dissolved. The solution was equilibrated for 2 hours at RT before use. The solution can be stored at RT for 48 hours or 4° C. for 7 days and should be equilibrated to RT before use
An alternative media (“FeSSIF alternative media”) was used to study the trifluoroacetate salts (Type A and B) and the HCl Type I salt. More specifically, the media was prepared by transferring 0.41 mL of glacial acid and weighing 0.20 g of sodium hydroxide, 0.59 g of sodium chloride into a 50-mL volumetric flask. This was dissolved with approximately 48 mL of purified water. The pH was adjusted to exactly 5.0 using 1 M HCl or 1 M NaOH and diluted to volume with purified water. 0.56 g of SIF powder was added, stirred and sonicated until all the powder is completely dissolved. The solution can be stored at RT for 48 hours or 4° C. for 7 days and should be equilibrated to RT before use.
Acetate Buffer (pH 5.5) Preparation—The acetate buffer (pH 5.5) used for the trifluoroacetate salts (Type A and B) and the HCl Type I salt was prepared by placing 0.60 g sodium acetate (NaC2H3O2.3H2O) in a 100-mL volumetric flask, adding 3 mL of 2 M acetic acid solution, and then adding purified water to volume.
An alternative media (“phosphate (pH 6.0) alternative media”) was used to study the trifluoroacetate salts (Type A and B) and the HCl Type I salt. More specifically, the media was prepared by dissolving 2.72 g of 0.2 M monobasic potassium phosphate (KH2PO4) in purified water, and diluting with purified water t 100 mL. 0.8 g of 0.2 M sodium hydroxide in purified water was diluted with purified water to 100 mL. Then 50 mL of the 0.2 M monobasic potassium phosphate solution was placed in a 200-mL volumetric flask, 5.6 mL of 0.2 M sodium hydroxide solution was added, and then purified water was added to volume.
The trifluoroacetate salts (Type A and B) and the HCl Type I salt were tested using the following alternative procedure. First, 15 mg, 36 mg or 90 mg solid was weighted into a 4-mL plastic tube, and 3 mL of relevant media was added before leaving the suspension on a rolling incubator (25 r/min). For SCF, 90 mg of solid was used. For FaSSIF, acetate buffer (pH 5.5), and phosphate buffer (pH 6.0), 15 mg solid was used. For FeSSIF, 36 mg of solid was used. 1.0 mL aliquot of the suspension was sampled for centrifugation with the supernatant submitted for HPLC and pH measurement and solid for XRPD characterization at 1 hr, 4 hr and/or 24 hrs.
The solubility of trifluoroacetate Type A, Type B and HCl Type I was measured in SGF at ambient temperature. Approximately 90 mg of solid sample was weighted into a 4-mL centrifuge tube, and 3 mL of SGF buffer was added before leaving the suspension on a rolling incubator (25 r/min). 1.0 mL aliquot of the suspension was sampled for centrifugation (10000 rpm, 3 mins) the supernatant was analyzed by HPLC and pH measurement and solid by XRPD characterization at 1 hr, 4 hr and 24 hrs, respectively.
The solubility of trifluoroacetate Type A, Type B and hydrochloride Type I was measured in the FaSSIF alternative media at ambient temperature. Approximately 15 mg of solid sample was weighted into a 4-mL plastic tube, and 3 mL of the media was added before leaving the suspension on a rolling incubator (25 r/min).

[6] = 25° C./60% RH (uncapped), 1 week
[7] = 25° C./60% RH (uncapped), 2 weeks
[8] = 25° C./60% RH (uncapped), 4 weeks
[9] = 25° C./60% RH (uncapped), 8 weeks
[10] = 40° C./75% RH (uncapped), 1 week
[11] = 40° C./75% RH (uncapped), 2 weeks
[12] = 40° C./75% RH (uncapped), 4 weeks
[13] = 40° C./75% RH (uncapped), 8 weeks

SMILES: CC(C)[C@@H](C)[C@@]1(C)CC[C@]2(C)[C@H]3CC[C@@H]4[C@@]5(COC[C@]4(C)[C@@H](OC[C@](C)(N)C(C)(C)C)[C@H](n4ncnc4-c4ccncc4)C5)C3=CC[C@@]2(C)[C@@H]1C(=O)O.O=C(O)CNC(=O)c1ccccc1.O=C(O)CNC(=O)c1ccccc1 [SCY-078 hippurate Type B]
- water uptake (DVS) ([1]; 25° C., 80% RH): ~3.5%
- solid form by XRPD after DVS [1]: converted to SCY-078 hippurate Type A
- pH 1 hr [2]: 4.6
- pH 24 hrs [2]: 4.2

SMILES: CC(C)[C@@H](C)[C@@]1(C)CC[C@]2(C)[C@H]3CC[C@@H]4[C@@]5(COC[C@]4(C)[C@@H](OC[C@](C)(N)C(C)(C)C)[C@H](n4ncnc4-c4ccncc4)C5)C3=CC[C@@]2(C)[C@@H]1C(=O)O.O=C(O)CC(O)(CC(=O)O)C(=O)O [SCY-078 citrate Type M]
- water uptake (DVS) ([1]; 25° C., 80% RH): 11.0%
- solid form by XRPD after DVS [1]: converts to partially amorphous
- physical and chemical stability ([3]; closed dish 60° C.): impurity of SCY-078 citrate Type M increased
- physical and chemical stability ([3]; open dish 25° C., 60% RH): physically and chemically stable
- physical and chemical stability ([3]; open dish 40° C., 75% RH): One diffraction peak change and partial crystallinity loss

SMILES: CC(C)[C@@H](C)[C@@]1(C)CC[C@]2(C)[C@H]3CC[C@@H]4[C@@]5(COC[C@]4(C)[C@@H](OC[C@](C)(N)C(C)(C)C)[C@H](n4ncnc4-c4ccncc4)C5)C3=CC[C@@]2(C)[C@@H]1C(=O)O.O=P(O)(O)O [SCY-078 phosphate Type A]
- water uptake (DVS) ([1]; 25° C., 80% RH): 12.5%
- solid form by XRPD after DVS [1]: no form change
- pH 1 hr [2]: 3.4
- pH 24 hrs [2]: 3.6

SMILES: CC(C)[C@@H](C)[C@@]1(C)CC[C@]2(C)[C@H]3CC[C@@H]4[C@@]5(COC[C@]4(C)[C@@H](OC[C@](C)(N)C(C)(C)C)[C@H](n4ncnc4-c4ccncc4)C5)C3=CC[C@@]2(C)[C@@H]1C(=O)O.CS(=O)(=O)O [SCY-078 mesylate Type A]
- water uptake (DVS) ([1]; 25° C., 80% RH): 11.5%
- solid form by XRPD after DVS [1]: no form change
- pH 1 hr [2]: 3.4
- pH 24 hrs [2]: 3.6

SMILES: CC(C)[C@@H](C)[C@@]1(C)CC[C@]2(C)[C@H]3CC[C@@H]4[C@@]5(COC[C@]4(C)[C@@H](OC[C@](C)(N)C(C)(C)C)[C@H](n4ncnc4-c4ccncc4)C5)C3=CC[C@@]2(C)[C@@H]1C(=O)O.Cl [SCY-078 HCl Type I]
- HPLC purity [4, 6]: 99.9%
- Solid form [4, 6]: Type I
- HPLC purity [4, 7]: 99.9%
- Solid form [4, 7]: Type I
- HPLC purity [4, 8]: 99.9%
- Solid form [4, 8]: Type I
- HPLC purity [4, 9]: 99.9%
- Solid form [4, 9]: Type I
- physical and chemical stability ([4]; 25° C./60% RH, 40° C./75% RH and 60° C., 8 weeks): physically and chemically stable
- HPLC purity [4, 10]: 99.9%
- Solid form [4, 10]: Type I
- HPLC purity [4, 11]: 99.9%
- Solid form [4, 11]: Type I
- HPLC purity [4, 12]: 99.9%
- Solid form [4, 12]: Type I
- HPLC purity [4, 13]: 99.9%
- Solid form [4, 13]: Type I
- HPLC purity ([4]; 60° C. (capped), 1 week): 99.9%
- Solid form ([4]; 60° C. (capped), 1 week): Type I
- HPLC purity ([4]; 60° C. (capped), 2 weeks): 99.9%
- Solid form ([4]; 60° C. (capped), 2 weeks): Type I
- HPLC purity ([4]; 60° C. (capped), 4 weeks): 99.9%
- Solid form ([4]; 60° C. (capped), 4 weeks): Type I
- HPLC purity ([4]; 60° C. (capped), 8 weeks): 99.9%
- Solid form ([4]; 60° C. (capped), 8 weeks): Type I
- Initial HPLC purity ([4]; Initial): 99.9%
- Form change ([5]; FaSSIF alternative media, 1 hr): No
- Form change ([5]; FaSSIF alternative media, 4 hrs): No
- Form change ([5]; FaSSIF alternative media, 24 hrs): No
- form change of residual solid in FaSSIF alternative media ([5]; FaSSIF alternative media, ambient temperature): no form change was observed
- Form change ([5]; FeSSIF alternative media, 1 hr): No
- Form change ([5]; FeSSIF alternative media, 4 hrs): No
- Form change ([5]; FeSSIF alternative media, 24 hrs): No
- form change of residual solid in FeSSIF alternative media ([5]; FeSSIF alternative media, ambient temperature): no form change was observed
- Form change ([5]; SGF, 1 hr): No
- Form change ([5]; SGF, 4 hrs): No
- Form change ([5]; SGF, 24 hrs): No
- form change of residual solid in SGF ([5]; SGF, ambient temperature): no form change was observed
- form change of residual solid in acetate buffer ([5]; acetate buffer pH 5.5, ambient temperature): converted to Type II
- solubility in acetate buffer (comparison) ([5]; acetate buffer pH 5.5, ambient temperature, 4 hr and 24 hrs): lower solubility
- Form change ([5]; phosphate (pH 6.0) alternative media, 4 hrs): No
- Form change ([5]; phosphate (pH 6.0) alternative media, 24 hrs): No
- form change of residual solid in phosphate (pH 6.0) alternative media ([5]; phosphate (pH 6.0) alternative media, ambient temperature): No form change was observed
- solubility in phosphate (pH 6.0) alternative media (comparison) ([5]; phosphate (pH 6.0) alternative media, ambient temperature, 4 hr and 24 hrs): higher solubility
- water uptake (DVS) ([1]; 25° C./80% RH): 6.1 wt %
- solid form by XRPD after DVS [1]: No form change

SMILES: CC(C)[C@@H](C)[C@@]1(C)CC[C@]2(C)[C@H]3CC[C@@H]4[C@@]5(COC[C@]4(C)[C@@H](OC[C@](C)(N)C(C)(C)C)[C@H](n4ncnc4-c4ccncc4)C5)C3=CC[C@@]2(C)[C@@H]1C(=O)O.O=C(O)CC(O)(CC(=O)O)C(=O)O [SCY-078 citrate Type S]
- water uptake (DVS) ([1]; 25° C., 80% RH): 8.2%
- solid form by XRPD after DVS [1]: peak shifts
- physical and chemical stability ([3]; closed dish 60° C.): physically and chemically stable
- physical and chemical stability ([3]; open dish 25° C., 60% RH): Diffraction peak shifts were observed
- physical and chemical stability ([3]; open dish 40° C., 75% RH): Diffraction peak shifts were observed
